Assay results taken from ChEMBL document CHEMBL4406795, “An overview on the synthetic and medicinal perspectives of indenopyrazoles” (Eur J Med Chem, 2019).
Converted amounts (≈) assume the structure as drawn.

How the values were obtained:
[1] = target: Cyclin-dependent kinase 2 (Homo sapiens, UniProt P24941); assay: Inhibition of CDK2 (unknown origin)
[2] = test system: Bacillus subtilis; assay: Antibacterial activity against Bacillus subtilis MTCC 441 after 48 hrs by serial tube dilution method; assay type: functional; conditions: MTCC 441, 48 h
[3] = test system: Staphylococcus aureus; assay: Antibacterial activity against Staphylococcus aureus MTCC 7443 after 48 hrs by serial tube dilution method; assay type: functional; conditions: MTCC 7443, 48 h
[4] = test system: Escherichia coli; assay: Antibacterial activity against Escherichia coli MTCC 42 after 48 hrs by serial tube dilution method; assay type: functional; conditions: for MIC: Escherichia coli, MTCC 42, 48 h
[5] = test system: Pseudomonas aeruginosa; assay: Antibacterial activity against Pseudomonas aeruginosa MTCC 741 after 48 hrs by serial tube dilution method; assay type: functional; conditions: MTCC 741, 48 h
[6] = test system: Candida albicans; assay: Antifungal activity against Candida albicans MTCC 183 after 120 hrs by serial tube dilution method; assay type: functional; conditions: MTCC 183, 120 h
[7] = test system: Aspergillus niger; assay: Antifungal activity against Aspergillus niger MTCC 282 after 120 hrs by serial tube dilution method; assay type: functional; conditions: MTCC 282, 120 h
[8] = test system: Candida albicans; assay: Antifungal activity against Candida albicans MTCC 183 assessed as zone of inhibition; assay type: functional
[9] = test system: Aspergillus niger; assay: Antifungal activity against Aspergillus niger MTCC 282 assessed as zone of inhibition; assay type: functional
[10] = test system: Bacillus subtilis; assay: Antibacterial activity against Bacillus subtilis MTCC 441 assessed as zone of inhibition; assay type: functional
[11] = test system: Staphylococcus aureus; assay: Antibacterial activity against Staphylococcus aureus MTCC 7443 assessed as zone of inhibition; assay type: functional
[12] = test system: Escherichia coli; assay: Antibacterial activity against Escherichia coli MTCC 42 assessed as zone of inhibition; assay type: functional

SMILES: COc1ccc(-c2[nH]nc3c2C(=O)c2c(NC(=O)CN4CCN(C(=N)N)CC4)cccc2-3)cc1
- IC50 [1]: 13 nM

SMILES: NC(=O)Nc1cccc2c1C(=O)c1c-2n[nH]c1-c1csc(Cl)c1
- IC50 [1]: 46 nM

SMILES: COc1cc2c(cc1OC)C1=NN(C(N)=S)C(c3ccc(F)cc3)C1C2 (stereo unspecified)
- MIC [2]: 4 µg/mL (≈ 10.8 µM)
- MIC [3]: 4 µg/mL (≈ 10.8 µM)
- MIC [4]: 4 µg/mL (≈ 10.8 µM)
- MIC [5]: 4 µg/mL (≈ 10.8 µM)

SMILES: COc1ccc(C2C3Cc4cc(OC)c(OC)cc4C3=NN2C(N)=O)cc1 (stereo unspecified)
- MIC [6]: 2 to 4 µg/mL (≈ 5.44 to 10.9 µM)
- MIC [7]: 2 to 4 µg/mL

SMILES: O=C(Nc1cccc2c1C(=O)c1c-2n[nH]c1-c1ccc(C(=O)N2CCNCC2)s1)NN1CCOCC1
- IC50 [1]: 8 nM

SMILES: CCc1nn(-c2nc(-c3ccc(Cl)cc3)cs2)c2c1Cc1ccccc1-2
- -logMIC [4]: 1.78

SMILES: Clc1ccc(-c2c3c(nn2-c2ccccc2)-c2ccccc2C3)cc1
- MIC [6]: 50 µg/mL (≈ 146 µM)
- MIC [7]: 50 µg/mL
- inhibition zone (IZ) [8]: 16 mm
- inhibition zone (IZ) [9]: 16 mm

SMILES: Cc1nn(-c2nc(-c3ccc(Cl)cc3)cs2)c2c1C(=O)c1ccccc1-2
- -logMIC [4]: 1.479

SMILES: O=[N+]([O-])c1ccc(-c2nn(-c3ccccc3)cc2-c2c3c(nn2-c2ccccc2)-c2ccccc2C3)cc1
- MIC [2]: 50 µg/mL (≈ 101 µM)
- MIC [3]: 50 µg/mL (≈ 101 µM)
- MIC [4]: 50 µg/mL (≈ 101 µM)
- MIC [6]: 50 µg/mL (≈ 101 µM)
- MIC [7]: 50 µg/mL
- inhibition zone (IZ) [10]: 20 mm
- inhibition zone (IZ) [11]: 20 mm
- inhibition zone (IZ) [12]: 20 mm
- inhibition zone (IZ) [8]: 18 mm
- inhibition zone (IZ) [9]: 18 mm

SMILES: COc1ccc(-c2n[nH]c3c2C(=O)c2c(C=O)cccc2-3)cc1
- IC50 [1]: 57 nM

SMILES: Cc1nn(-c2nc(-c3ccc(Cl)cc3)cs2)c2c1Cc1ccccc1-2
- -logMIC [4]: 1.764

SMILES: Clc1ccc(-c2nn(-c3ccccc3)cc2-c2c3c(nn2-c2ccccc2)-c2ccccc2C3)cc1
- MIC [2]: 50 µg/mL (≈ 103 µM)
- MIC [3]: 50 µg/mL (≈ 103 µM)
- MIC [4]: 50 µg/mL (≈ 103 µM)
- inhibition zone (IZ) [10]: 17 mm
- inhibition zone (IZ) [11]: 17 mm
- inhibition zone (IZ) [12]: 17 mm

SMILES: CCc1nn(-c2nc(-c3ccc(Cl)cc3)cs2)c2c1C(=O)c1ccccc1-2
- -logMIC [4]: 2.098

SMILES: O=[N+]([O-])c1ccc(-c2c3c(nn2-c2ccccc2)-c2ccccc2C3)cc1
- MIC [2]: 50 µg/mL (≈ 141 µM)
- MIC [3]: 50 µg/mL (≈ 141 µM)
- MIC [4]: 50 µg/mL (≈ 141 µM)
- MIC [6]: 50 µg/mL (≈ 141 µM)
- MIC [7]: 50 µg/mL
- inhibition zone (IZ) [10]: 18 mm
- inhibition zone (IZ) [11]: 18 mm
- inhibition zone (IZ) [12]: 18 mm
- inhibition zone (IZ) [8]: 13 mm
- inhibition zone (IZ) [9]: 13 mm

SMILES: Cc1ccc2nc(-n3nc(-c4ccc(Cl)cc4)c4c3-c3ccccc3C4=O)sc2c1
- MIC [7]: 3.6 µM

SMILES: O=[N+]([O-])c1cccc(-c2c3c(nn2-c2ccccc2)-c2ccccc2C3)c1
- MIC [2]: 50 µg/mL (≈ 141 µM)
- MIC [3]: 50 µg/mL (≈ 141 µM)
- MIC [4]: 50 µg/mL (≈ 141 µM)
- MIC [6]: 50 µg/mL (≈ 141 µM)
- MIC [7]: 50 µg/mL
- inhibition zone (IZ) [10]: 17 mm
- inhibition zone (IZ) [11]: 17 mm
- inhibition zone (IZ) [12]: 17 mm
- inhibition zone (IZ) [8]: 15 mm
- inhibition zone (IZ) [9]: 15 mm

SMILES: OC(Cn1cncn1)(Cn1cncn1)c1ccc(F)cc1F [FLUCONAZOLE]
- MIC [7]: 5 µM
